Here are results for seven compounds from US20210115000A1, “NILE RED DERIVATIVES FOR IMPROVED RATIOMETRIC IMAGING FOR NERVE SPECIFIC CONTRAST” (Oregon Health & Sciences University, priority 2018, published 2021).

Data set [1] in a line: Spectroscopic analysis: absorbance, emission and quantum yield of Nile Red derivatives. The class given is physicochemical. The settings on record: in DMSO; for QY (quantum yield): standard Rhodamine B. On the procedure: Tandem liquid chromatography mass spectroscopy (LCMS) analysis (Agilent 1260 LC system with a 6224 time of flight (TOF) MS, Agilent, Santa Clara, Calif.) was performed using a 2.7 micron C18 column (4.6×50 mm, Agilent). High performance liquid chromatography (HPLC) purification (Agilent 1260 system with a preparative pump) was performed using a 5 micron C18 column (21.2×150 mm, Agilent). For both HPLC and LCMS, the mobile phase consisted of HPLC grade acetonitrile and water, treated with 0.1% formic acid. Spectroscopic analysis was performed on a Spectramax M5 spectrometer (Molecular Devices, Sunnyvale, Calif.) using a quartz cuvette with a 1 cm pathlength. Quantum yield was calculated according to equation (1).
Where Ø is the quantum yield, F is the integrated fluorescence intensity, f is the absorbance at the excitation wavelength and n is the refractive index of the solvent. S refers to the quantum yield standard (Rhodamine B)^25 and X refers to the unknown sample.

Data set [2] deals with sciatic nerve or brachial plexus nerve sites (adipose, nerve, muscle tissue). Briefly: In vivo imaging following direct/topical administration on rodent nerve sites. On the set-up: species or system male CD-1 mice. The following applies: immediately following direct administration. An excerpt:
In vivo images were acquired using a previously published, custom-built small animal fluorescence imaging system, described briefly here.^27 Fluorescent images were obtained using a Qimaging EXi Blue monochrome camera (Surrey, British Columbia, CA) with a removable Bayer mask for collection of co-registered color and fluorescence images. A Photofluor II broad band light source (89 North) was expanded onto the surgical field through a liquid light guide and used unfiltered for white light illumination. Nile Red and NR5 were excitated using a 545 t 12.5 nm bandpass filter, while fluorescence emission images were collected with a 605±35 nm bandpass filter. Oxazine 4 (Exciton, West Chester, Ohio) was used for nerve and adipose co-staining and ratiometic imaging studies. Oxazine 4 was excited using a 620±30 nm bandpass filter, while fluorescence emission images were collected through a 700±37.5 nm bandpass filter. Approval for the use of animals in the study was obtained from the Institutional Animal Care and Use Committee (IACUC) at Oregon Health and Science University (OHSU). In vivo staining studies were carried out on male CD-1 mice using an optimized direct/topical administration protocol.^2 Staining was performed concurrently on no more than two nerve sites (sciatic nerve or brachial plexus) per mouse. Nile Red and all Nile Red derivatives were formulated in a previously published co-solvent formulation (10% DMSO, 5% Kolliphor, 63.75% serum and 21.25% PBS^14) at a final concentration of 100 μM. Each formulated fluorophore was incubated for 5 minutes on the nerve site (n=4 nerve sites/fluorophore), followed by 9 short flushes with PBS. The nerve site was then incubated with blank co-solvent not containing fluorophore for 5 minutes, followed again by 9 short flushes with PBS.

The subject of data set [3] is U2OS human osteosarcoma cell line. Nature of the data set: Nile Red derivative cell staining and imaging, fixed and live cells. The class given is cell-based. The following applies: 1 μM; for fluorescence intensity in fixed cells: U2OS fixed with 4% PFA, imaged without washing; for fluorescence intensity in live cells without washing / structures observed in live cells without washing: U2OS live, imaged in staining solution. On the procedure:
The U2OS human osteosarcoma cell line was cultured in Dulbecco's Modified Eagle Medium (DMEM, Thermo Fisher Scientific, Waltham, Mass.) with 10% fetal bovine serum (FBS, VWR, Radnor, Pa.) and 1% Penicillin/Steptomycin 100× (Thermo Fisher Scientific) at 37° C. in 5% CO2. For live cell imaging studies, Fluorobrite DMEM media (Thermo Fisher Scientific) was used in place of DMEM. For imaging studies, cells were grown in 96-well glass bottom plates (Cellvis, Mountain View, Calif.) for 48 hours, with a final confluence of <80%. Nile Red and its derivatives were prepared at 1-10 mM stock concentration in DMSO and diluted into media or buffer for cell staining and imaging studies.
Cell staining studies were completed on fixed and live U2OS cells using Nile Red and each synthesized Nile Red derivative described as follows. For fixed cell staining, cells were washed once with 1× phosphate buffered saline (PBS), then fixed with 4% paraformaldehyde (PFA) for 20 minutes at room temperature. The PFA was removed and each well was washed three times for 5 mins per wash (3×5 mins) with 1×PBS. The Nile Red fluorophores were diluted into 1×PBS to a final concentration of 1 μM, incubated for 5 minutes with the cells, and images were collected without washing. Live cell staining was completed using two methods. First, cells were washed once with Fluorobrite DMEM. The Nile Red fluorophore solution was prepared in Fluorobrite DMEM by diluting to a final concentration of 1 μM for staining, where cells were stained for 5 minutes. The fluorophore containing media was removed and the cells were fixed for 20 minutes using 4% PFA. Cells were then washed 3×5 mins with Fluorobrite DMEM prior to imaging. Second, cells were washed with Fluorobrite DMEM without FBS once for 5 minutes. Nile Red fluorophore solutions were prepared in Fluorobrite without FBS at 1 μM final concentration for cell staining. The cells were stained with the prepared solution for 5 minutes and imaged in the staining solution. All images were collected at their ideal exposure times to permit visualization of stained intracellular structures.
All ex vivo and cellular fluorescence and white light images were collected using a Zeiss AxioObserver inverted fluorescence microscope (Carl Zeiss, Oberkochen, Germany). All cell images were collected at 40× magnification and all tissue section images were collected at 10× magnification. Fluorescence excitation was completed using a Photofluor II broad band light source (89 North, Burlington, Vt.) filtered with a 545±12.5 nm bandpass excitation filter. Fluorescence images were collected using a 605±35 nm bandpass emission filter and a AxioCam 506 monochromo camera (Zeiss). All Filters were Purchased from Chroma Technologies (Bellows Falls, Vt.).

Data set [4] deals with nerve, adipose and muscle tissue at nerve sites. Nature of the data set: In vivo co-staining with Oxazine 4, ratiometric imaging and ROC curve analysis. Set-up: species or system male CD-1 mice. The settings on record: 30 min after staining compared to immediately following staining. An excerpt:
In vivo images were acquired using a previously published, custom-built small animal fluorescence imaging system, described briefly here.^27 Fluorescent images were obtained using a Qimaging EXi Blue monochrome camera (Surrey, British Columbia, CA) with a removable Bayer mask for collection of co-registered color and fluorescence images. A Photofluor II broad band light source (89 North) was expanded onto the surgical field through a liquid light guide and used unfiltered for white light illumination. Nile Red and NR5 were excitated using a 545 t 12.5 nm bandpass filter, while fluorescence emission images were collected with a 605±35 nm bandpass filter. Oxazine 4 (Exciton, West Chester, Ohio) was used for nerve and adipose co-staining and ratiometic imaging studies. Oxazine 4 was excited using a 620±30 nm bandpass filter, while fluorescence emission images were collected through a 700±37.5 nm bandpass filter. Approval for the use of animals in the study was obtained from the Institutional Animal Care and Use Committee (IACUC) at Oregon Health and Science University (OHSU). In vivo staining studies were carried out on male CD-1 mice using an optimized direct/topical administration protocol.^2 Staining was performed concurrently on no more than two nerve sites (sciatic nerve or brachial plexus) per mouse. Nile Red and all Nile Red derivatives were formulated in a previously published co-solvent formulation (10% DMSO, 5% Kolliphor, 63.75% serum and 21.25% PBS^14) at a final concentration of 100 μM. Each formulated fluorophore was incubated for 5 minutes on the nerve site (n=4 nerve sites/fluorophore), followed by 9 short flushes with PBS. The nerve site was then incubated with blank co-solvent not containing fluorophore for 5 minutes, followed again by 9 short flushes with PBS. In vivo co-staining was completed with (1) Nile Red and Oxazine 4 as well as (2) NR5 and Oxazine 4. For these studies, co-solvent formulated Oxazine 4 ([…]) was incubated on the nerve site for 5 minutes followed by 9 short flushes with PBS. The co-solvent formulated Nile Red or NR5 (100 μM) was then incubated on the nerve site for 5 minutes and also followed by 9 short flushes with PBS. Co-registered (1) Nile Red and Oxazine 4 or (2) NR5 and Oxazine 4 images were collected from n=4 nerve sites per groups (1) and (2). Ratiometric images were calculated and quantified using region of interest analysis on the white light images to identify the nerve, adipose and muscle tissue types. Due to the known cross talk of Oxazine 4 into the Nile Red channel,^2 the Oxazine 4 image was subtracted from the Nile Red or NR5 image resulting in an image of only adipose. The ratiometric images were then calculated as the Oxazine 4 image minus the corrected Nile Red or NR5 image divided by the corrected Nile Red or NR5 image. Receiver Operator Characteristic (ROC) curve analysis was performed to assess differences between the ratiometric images, where the area under the curve (AUC) was used as the metric to differentiate between groups (1) and (2) using custom written MatLab code.^28

Setting [5] is: U2OS, fixed and washed prior to imaging.

For the compound `CCN(CC)c1ccc2nc3c4ccc(-c5ccc(N)cc5)cc4c(=O)cc-3oc2c1` [NR1], in data set [1], the “Max Abs” value is 555 nm, the “Max Em” value is reported as 635 nm, the “Stokes Shift” value is given as 80 nm and the “QY (quantum yield)” value worked out at 0.08. Moreover, in data set [2], the “adipose to muscle ratio” value is “lower than Nile Red, adipose to muscle contrast was similar” and the “adipose to nerve ratio” value was “increased contrast over control autofluorescence with similar adipose to nerve contrast”. Also, in data set [3] (5 min), the “fluorescence intensity in fixed cells” value is “brighter in vitro fluorescence than NR12”; the “fluorescence intensity in live cells without washing” value is “brighter than other Nile Red derivatives with higher quantum yields such as NR12 and NR6”; the “structures observed in live cells without washing” value was “Prominent lipid droplet like structures”.

For the compound `CCN(CC)c1ccc2nc3c4cc(C#Cc5ccc(C=O)c(S(C)(=O)=O)c5)ccc4c(=O)cc-3oc2c1` [NR6, 4-((9-(diethylamino)-5-oxo-5H-benzo[a]phenoxazin-2-yl)ethynyl)-2-(methylsulfonyl)benzaldehyde], in data set [1], the “Max Abs” value is on record as 570 nm, the “Max Em” value came to 640 nm, the “Stokes Shift” value is 70 nm and the “QY (quantum yield)” value was determined as 0.45. In data set [2], the “adipose to nerve ratio” value is reported as “increased contrast over control autofluorescence with similar adipose to nerve contrast”. The “exposure time in cells stained live, then fixed” value in data set [3] (U2OS, 5 min, fixed and washed prior to imaging) is “less than 10 sec”. Moreover, the “staining pattern in cells stained live, then fixed” value (“staining pattern” below) in data set [3] (setting [5]) is “more cytoplasmic structures were stained”.

For the compound `CCN(CC)c1ccc2nc3c4cc(C#Cc5cccc(N)c5)ccc4c(=O)cc-3oc2c1` [NR7, 2-((3-aminophenyl)ethynyl)-9-(diethylamino)-5H-benzo[a]phenoxazin-5-one], in data set [1], the “Max Abs” value stood at 565 nm, the “Max Em” value worked out at 640 nm, the “Stokes Shift” value is 75 nm and the “QY (quantum yield)” value is 0.14. The “staining pattern” value in data set [3] (setting [5]) is recorded as “more cytoplasmic structures were stained”.

Regarding `CCN(CC)c1ccc2nc3c4cc(C#Cc5cccc(C=O)c5)ccc4c(=O)cc-3oc2c1` [NR8, 3-((9-(diethylamino)-5-oxo-5H-benzo[a]phenoxazin-2-yl)ethynyl)benzaldehyde], in data set [1], the “Max Abs” value is on record as 565 nm, the “Max Em” value came out at 640 nm, the “Stokes Shift” value is 75 nm and the “QY (quantum yield)” value came to 0.48. In data set [3] (5 min), the “fluorescence intensity in fixed cells” value is recorded as “bright” and the “fluorescence intensity in live cells without washing” value was “brightest of the synthesized derivatives”.

Consider `CCN(CC)c1ccc2nc3c4cc(C#Cc5cc(C=O)ccc5OC)ccc4c(=O)cc-3oc2c1` [NR9, 3-((9-(diethylamino)-5-oxo-5H-benzo[a]phenoxazin-2-yl)ethynyl)-4-methoxybenzaldehyde], for which, in data set [1], the “Max Abs” value came to 565 nm, the “Max Em” value came to 640 nm, the “Stokes Shift” value came to 75 nm and the “QY (quantum yield)” value was 0.48. For the same compound, the “structures observed in live cells without washing” value in data set [3] (5 min) is “Prominent lipid droplet like structures”.

Consider `CCN(CC)c1ccc2nc3c4cc(-c5ccc(N)cc5)ccc4c(=O)cc-3oc2c1` [NR10, 2-(4-aminophenyl)-9-(diethylamino)-5H-benzo[a]phenoxazin-5-one], for which, in data set [1], the “Max Abs” value is 555 nm, the “Max Em” value worked out at 635 nm, the “Stokes Shift” value amounted to 80 nm and the “QY (quantum yield)” value turned out to be 0.04. Also, in data set [2], the “adipose to muscle ratio” value is “lower than Nile Red, adipose to muscle contrast was similar” and the “adipose to nerve ratio” value was “increased contrast over control autofluorescence with similar adipose to nerve contrast”. Also, in data set [3] (setting [5]), the “staining pattern” value is given as “more cytoplasmic structures were stained”.

As to `CC/N=c1/cc2oc3cc(NCC)c(C)cc3nc-2cc1C` [Oxazine 4, reference compound], the “ROC AUC of nerve-to-muscle contrast, change” value in data set [4] was “improved values”.
